Measured values taken from patent US20130324542A1, “[1,2,4]TRIAZOLO[4,3-B][1,2,4]TRIAZINE COMPOUNDS, PREPARATION METHOD AND USE THEREOF” (SHANGHAI INSTITUTE OF MATERIA MEDICA, CHINESE ACADEMY OF …, priority 2010, published 2013).

Key:
[1] = system: Human Glioblastoma Cells U-87MG Xenograft; assay: Tumor growth in human glioblastoma U-87MG xenograft model of nude mice; assay type: in vivo; settings: for tumor growth inhibition (TGI): 17 days, end of treatment; for inhibitory action on the growth of transplanted tumor: at each administration dose (50, 100 mg/kg i.p. daily)
Protocol: The treatment group was administered intraperitoneally and daily with compound I-19 at various concentrations (50 mg/kg, 100 mg/kg) respectively.
The length (A) and width (B) of the tumor in mice were measured twice a week and tumor volume was calculated thereby as: V=A×B^2/2. Provided that Vt was the tumor volume measured at a given time point and V0 was the tumor volume measured before the mice were grouped and administered, tumor growth inhibition (TGI) was calculated as: […]

[2] = Body weight and death of nude mice bearing U-87MG (toxicity and side effect); settings: for weight loss of nude mice: 50 and 100 mg/kg intraperitoneally once daily, 17 days
Protocol: LI-87MG Cells were inoculated subcutaneously in right axillary fossa of nude mice with 5×10^6 cells per mouse. After the xenografted tumor was formed, it was passed three generations in nude mice and then used. Tumor tissue in productive phase was cut into nubs of about 1.5 mm^3 and inoculated subcutaneously in right axillary fossa of the nude mice in a sterile condition. The diameters of the xenografted tumors were measured by a vernier caliper. […] The administration was performed once daily and lasted for 17 days. At the same time, the negative group was administered with equivalent physiological saline.
wherein, CVt was tumor volume in control group measured at a given time point, CV0 was tumor volume in control group measured before grouping and treatment, TVt was tumor volume in treatment group measured at a given time point, and TV0 was tumor volume in treatment group measured before grouping and treatment. The significant differences between the treated and control groups were evaluated using t-test. At the same time, body weight of nude mice in each group was measured twice a week to preliminarily evaluate the toxicity and side effect of compound.

[3] = target: c-Met tyrosine kinase (Homo sapiens, UniProt P08581); assay: c-Met kinase activity on molecular level (ELISA, Poly(Glu,Tyr)4:1 substrate); assay type: biochemical; settings: ATP 5 μM, 37° C., 1 h
Protocol: Poly(Glu, Tyr)4:1 as an enzyme substrate was diluted by potassium ion-free PBS (10 mM, sodium phosphate buffer, 150 mM NaCl, pH7.2-7.4) into a solution of 20 μg/ml. […] After the liquid in wells was removed, the plate was washed three time by T-PBS (PBS solution containing 0.1% Tween-20) at 200 μl/well, 5 min for each time. The ELISA plate was then dried in an oven at 37° C. for 1-2 h.
Each well was added with 50 μL of ATP solution diluted by reaction buffer (50 mM HEPES pH 7.4, 50 mM MgCl2, 0.5 mM MnCl2, 0.2 mM Na3VO4, 1 mM DTT) at a final concentration of 5 μM. Compound diluted by 1% DMSO into a suitable concentration was added at 10 μl/well and then c-Met tyrosine kinase protein diluted by 40 μl of reaction buffer was added. The plate was placed on a shaking table (100 rpm) at 37° C. and incubated for 1 h, and then washed three times by T-PBS. For each assay, triplicate wells without enzyme were used as blank control and wells having the corresponding DMSO concentration without compound were used as negative control. Primary antibody PY99 (p-Tyr (PY99), Cell Signaling Technology, 1:1000 diluted in 5 mg/mL BSA T-PBS) was added at 100 μl/well. The plate was then placed on a shaking table at 37° C. and incubated for 0.5 h, and washed by T-PBS. Secondary antibody horseradish peroxidase-conjugated goat anti-mouse IgG (1:2000 diluted in 5 mg/mL BSA T-PBS) was added at 100 μl/well. The plate was then placed on a shaking table at 37° C. for 0.5 h and washed three times by T-PBS. 2 mg/mL of OPD developer (diluted by a 0.1M citric acid-sodium citrate buffer (pH=5.4) containing 0.03% of H2O2) was added at 100 μl/well, and the plate was kept in dark at 25° C. for 1-10 min. OPD was ultrasonically dissolved and the developer solution was prepared just before use. 2 M of H2SO4 was added at 50 μl/well to stop the reaction. The plate was read using a wavelength regulated multi-well spectrophotometer (SPECTRA MAX 190) at 490 nm.
The inhibition rate was calculated according to the following equation:
Inhibition rate (%)=(1−(ODcompound−ODblank)/(ODnegative−ODblank))×100%
IC50 value was calculated through a four-parameter fit according to the inhibition curve.

[4] = target: T1, TPR-Met (Homo sapiens, UniProt P08581); assay: TPR-Met phosphorylation in NIH3T3/TPR-Met cells (Western blot); assay type: cell-based; settings: 0.01 μM, 6 h
T1 construct: therein no interference of Met's extracellular fragment, and the intracellular TPR-Met fused protein was expressed in cytoplasm; expressed in transfected cells; host or cells: NIH3T3/TPR-Met cells (mouse fibroblasts expressing TPR-Met); the other entry of the earlier key: TPR (P12270, Nucleoprotein TPR)
Protocol: NIH3T3/TPR-Met cells (in such cells, therein no interference of Met's extracellular fragment, and the intracellular TPR-Met fused protein was expressed in cytoplasm and could be activated continuously independent of HGF) were inoculated on a 12-well plate. After fusion degree reached 80%, the cells were treated with indicated concentration of corresponding compounds and SU11274 for 6 h at 37° C., collected and washed once by cold PBS (containing 1 mM sodium vanadate), and lysed with 1×SDS gel loading buffer (50 mM Tris-HCl (pH 6.8), 100 mM DTT, 2% SDS, 10% glycerin, 1 mM sodium vanadate, and 0.1% bromophenol blue). The lysate was heated in a boiling-water bath for 10 min and then centrifuged (12000 rpm) at 4° C. for 10 min.
The supernatant was subjected to SDS-PAGE electrophoresis and the protein was transferred to nitrocellulose membranes (Amersham Life Sciences, Arlington Heights, Ill., USA) by a Semi-Dry Electroblotting System. […] The membrane was washed three times by TBS/T containing 1 mM of sodium vanadate, 15 min for each time, and then placed in a solution of secondary antibody (1:2000) at room temperature for 1-2 hours. After the membranes were washed 3 times as above, they were dyed with an ECL reagent, exposed and developed.
The nitrocellulose membranes were placed in Reblot™ solution of Chemicon co. […]

[5] = system: NIH3T3/TPR-Met cells; assay: Cell proliferation mediated by c-Met, SRB assay, NIH3T3/TPR-Met cells; assay type: cell-based; settings: 72 h
Protocol: Three concentrations were set, and for each concentration, the test was carried out in triplicate wells. 72 h later, the culture medium was removed. The residue was fixed by precooled 10% TCA at 4° C. for 1 h, washed by distilled water for 5 times and dried at room temperature. […] The excess dye was removed by washed with 1% glacial acetic acid for 5 times and dried in air. At last, 150 μL of Tris-HCL solution (10 mM Tris, pH 10.0) was added to each well.

[6] = system: NIH3T3 background cells; assay: Cell proliferation, SRB assay, NIH3T3 background cells as control; assay type: cell-based; settings: 72 h
Protocol: NIH3T3/TPR-Met cells in the logarithmic growth phase and NIH3T3 background cells were seeded in a 96-well microcuture plate at 90111_, per well and cultivated overnight, followed by addition of 104 of the compound at different concentrations. Three concentrations were set, and for each concentration, the test was carried out in triplicate wells. 72 h later, the culture medium was removed. The residue was fixed by precooled 10% TCA at 4° C. for 1 h, washed by distilled water for 5 times and dried at room temperature. After that, 4 mg/mL of sulforodamine B (SRB) in 1% glacial acetic acid was added to each well (1004 per well) for staining at room temperature for 15 min. The excess dye was removed by washed with 1% glacial acetic acid for 5 times and dried in air. At last, 150 μL of Tris-HCL solution (10 mM Tris, pH 10.0) was added to each well. OD values were measured on a multi-well spectrophotometer at […].

[7] = 50 mg/kg intraperitoneally once daily
[8] = 100 mg/kg intraperitoneally once daily

Chain of c-Met tyrosine kinase (P08581 25-1390): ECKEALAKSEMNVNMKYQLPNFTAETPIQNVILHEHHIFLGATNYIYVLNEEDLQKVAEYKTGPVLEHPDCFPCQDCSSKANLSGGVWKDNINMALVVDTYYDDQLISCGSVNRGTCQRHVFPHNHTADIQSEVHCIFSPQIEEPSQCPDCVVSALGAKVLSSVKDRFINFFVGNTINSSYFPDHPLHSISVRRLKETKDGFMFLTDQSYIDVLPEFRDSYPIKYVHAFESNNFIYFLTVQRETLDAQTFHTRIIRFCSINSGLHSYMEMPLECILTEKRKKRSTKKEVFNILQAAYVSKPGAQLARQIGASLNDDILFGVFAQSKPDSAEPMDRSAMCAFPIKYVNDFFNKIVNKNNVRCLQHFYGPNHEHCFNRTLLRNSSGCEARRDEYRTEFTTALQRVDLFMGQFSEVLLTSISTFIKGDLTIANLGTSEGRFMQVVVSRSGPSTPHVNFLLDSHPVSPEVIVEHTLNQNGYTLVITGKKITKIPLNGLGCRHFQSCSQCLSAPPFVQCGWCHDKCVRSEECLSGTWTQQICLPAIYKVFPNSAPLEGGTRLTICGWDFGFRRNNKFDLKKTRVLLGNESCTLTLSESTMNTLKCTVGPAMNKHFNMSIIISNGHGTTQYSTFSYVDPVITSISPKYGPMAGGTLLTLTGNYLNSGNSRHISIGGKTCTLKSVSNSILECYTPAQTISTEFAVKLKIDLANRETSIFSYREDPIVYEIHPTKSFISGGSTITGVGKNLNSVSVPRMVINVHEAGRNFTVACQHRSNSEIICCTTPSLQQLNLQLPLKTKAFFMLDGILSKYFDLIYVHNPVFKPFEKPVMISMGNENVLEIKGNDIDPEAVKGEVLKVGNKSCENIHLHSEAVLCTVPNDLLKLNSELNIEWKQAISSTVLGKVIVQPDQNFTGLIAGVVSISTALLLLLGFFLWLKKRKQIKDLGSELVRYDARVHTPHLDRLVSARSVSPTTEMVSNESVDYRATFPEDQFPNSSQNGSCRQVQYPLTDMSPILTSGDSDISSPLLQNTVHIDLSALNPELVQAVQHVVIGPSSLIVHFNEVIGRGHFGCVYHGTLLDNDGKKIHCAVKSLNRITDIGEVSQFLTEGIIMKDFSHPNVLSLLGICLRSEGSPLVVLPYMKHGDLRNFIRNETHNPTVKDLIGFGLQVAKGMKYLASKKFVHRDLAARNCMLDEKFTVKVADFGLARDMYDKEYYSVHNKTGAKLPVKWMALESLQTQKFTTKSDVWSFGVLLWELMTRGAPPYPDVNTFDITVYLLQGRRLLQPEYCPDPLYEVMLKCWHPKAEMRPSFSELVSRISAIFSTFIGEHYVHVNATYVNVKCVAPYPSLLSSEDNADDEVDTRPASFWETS
T1 sequence (P08581 with tags, fused parts or gaps): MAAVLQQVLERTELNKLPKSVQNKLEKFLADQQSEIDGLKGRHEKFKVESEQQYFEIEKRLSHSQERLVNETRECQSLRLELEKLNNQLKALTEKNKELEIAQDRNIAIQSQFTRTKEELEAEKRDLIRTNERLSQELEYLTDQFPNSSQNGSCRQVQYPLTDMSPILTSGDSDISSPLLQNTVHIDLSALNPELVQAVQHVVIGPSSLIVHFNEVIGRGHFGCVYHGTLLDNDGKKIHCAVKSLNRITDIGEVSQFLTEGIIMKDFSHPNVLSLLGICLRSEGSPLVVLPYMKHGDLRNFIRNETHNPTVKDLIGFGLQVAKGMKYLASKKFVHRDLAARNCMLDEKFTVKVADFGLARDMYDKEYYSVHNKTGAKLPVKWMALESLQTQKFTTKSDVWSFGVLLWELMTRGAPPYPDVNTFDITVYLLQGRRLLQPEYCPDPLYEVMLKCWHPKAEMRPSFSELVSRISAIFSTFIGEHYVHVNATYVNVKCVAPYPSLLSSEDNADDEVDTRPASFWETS

SMILES | tumor growth inhibition (TGI) [1, 7] | tumor growth inhibition (TGI) [1, 8] | inhibitory action on the growth of transplanted tumor [1] | death of mice [2, 8] | weight loss of nude mice [2] | IC50 [3] | c-Met phosphorylation in NIH3T3/TPR-Met cells [4] | inhibition rate (%) on proliferation of NIH3T3/TPR-Met cells ([5]; 1 μM) | inhibition rate (%) on proliferation of NIH3T3/TPR-Met cells ([5]; 10 μM) | inhibition rate (%) on proliferation of NIH3T3/TPR-Met cells ([5]; 50 μM) | inhibition rate (%) on proliferation of NIH3T3 background cells ([6]; 1 μM) | inhibition rate (%) on proliferation of NIH3T3 background cells ([6]; 10 μM) | inhibition rate (%) on proliferation of NIH3T3 background cells ([6]; 50 μM)
Cn1cc(-c2cnc3nnc(C(F)(F)c4ccc5ncccc5c4)n3n2)cn1 [Compound I-19, 3-[(6-quinolyl)difluoromethyl]-6-[(1-methyl)-4-pyrazolyl]-[1,2,4]triazolo[4,3-b][1,2,4]triazine] | 83.9% | 95.3% | significantly inhibitory action | one mouse died on the 9th day | No mouse in I-19 or JNJ-38877605 treated group show obvious weight loss |  |  |  |  |  |  |  | 
Cn1cc(-c2ccc3nnc(C(F)(F)c4ccc5ncccc5c4)n3n2)cn1 [JNJ-38877605, reference compound] | 101.4% | 106.9% | significantly inhibitory action |  | No mouse in I-19 or JNJ-38877605 treated group show obvious weight loss | 0.95 nM | less potency | 70.8% | 72.2% | 77.3% | 16.0% | 15.1% | 25.7%
